Source: patent publication US9447037B2, “4-(5-(4-chlorophenyl)-2-(2-cyclopropylacetyl)-1,4-dimethyl-1H-pyrrol-3-yl)benzenesulfonamide as alpha 7 nAChR modulator” (Lupin Limited, priority 2013, dated 2016)

Tests used:
Wistar rats = assay: Novel Object Recognition Task (subchronic study); format: in vivo, rat; conditions: p.o.; for Minimum effective dose: subchronic 7 days, Wistar rats
Source text: Briefly, Wistar rats were acclimatized to the CNS-Laboratory-animal holding room for at least 7 days prior to the randomization, under standard housing conditions. Animals were handled and familiarized with the injection procedures during this period. Two days before the experimentation (acquisition trial, T1), rats were randomized in different treatment-groups based on their body weights namely, vehicle (Tween 80 (1%, v/v), Vitamin E TPGS (Speziol®, 10%, v/v) q.s. 100% v/v in milli-Q water, 2 ml/kg, p.o.), scopolamine (1 mg/kg, i.p.) and test compounds (Compound 1: ranging from 0.005 to 0.05 mg/kg, p.o. and compound A:ranging from 0.05 to 0.5 mg/kg, p.o.)
Vehicle or test compounds (Compounds 1 and A) were administered in a single-dose, subchronically for 7 days, and 1 h before the acquisition trial on day-8 in respective treatment-groups. In order to induce cognitive deficits, scopolamine (1 mg/kg) was injected 25 min before the acquisition trial (T1). Acquisition (T1) and Retention (T2) trials were separated by an intertrial interval of 30 min. In the first trial (acquisition trial, T1), the rats were subjected to arena with two identical objects for a period of 5 min and exploration time towards individual object was measured. In retention trial, one of the identical object was replaced with novel object.
In the time-delay induced amnesia paradigm, vehicle or test compounds (Compounds 1 and A) were administered once-daily for 7 days, and 1 h before the acquisition trial (T1) on day-8 in the respective treatment-groups. After this, a second, retention (T2) trial, was conducted on day-9. A 24 h inter-trial interval served to induce spontaneous decay of memory and resultant amnesia in this paradigm.
In the second trial (retention trial, T2), one of the objects presented in T1 was replaced by a novel object, and the rats were left to explore in the arena for 5 min. The time spent exploring the familiar (F) and the novel object (N) was recorded separately. All the animals underwent habituation session of 10 min duration 24 h prior to acquisition trial to get them acclimatized to the test arena. Both the trials (acquisition and retention) were of 5 min duration. The NOR task was performed in the square-open-field boxes (40 cm long×40 cm wide×40 cm high) made up of non-reflective PVC sheets with black surrounding walls and light gray floor. Colored plastic and glass bottles of different size, shapes and texture, served as object of exploration.
Object exploration was measured as the ‘time spent by the animal’ directing its nose at a distance 2 cm to the object or touching and exploring it. Time spent climbing on the object was not accounted as object exploration. In order to avoid the presence of olfactory trails, the test boxes and objects were always thoroughly cleaned between trials of individual animals.
Mean and standard error of the mean (S.E.M.) was calculated for the exploration time of each identical objects in T1, novel and familiar objects in T2 and discrimination index across the treatment groups. Exploration time within groups was compared with Student's paired t-test. Discrimination index was compared between groups by One-way ANOVA with Dunnett's post hoc test in comparison to the scopolamine-treated group or vehicle-treated group as per the paradigm. Discrimination index was compared between groups by unpaired t-test in comparison to the vehicle-treated group. p<0.05 was considered as significant. All statistical comparisons were performed using GraphPad Prism version 5.00 for Windows, GraphPad Software, San Diego Calif. USA.
The discrimination index (DI) was calculated based on explorations in T2 trial, using the formula.
Discrimination Index equals (time spent investigating novel object−time spent investigating familiar object)/(time spent investigating novel object+time spent investigating familiar object). […] All the experimental recordings were carried out by manual observation of animals by trained scientists. […]

Sprague Dawley rats = assay: Social Recognition Task (subchronic study); format: in vivo, rat; conditions: p.o.; for Minimum effective dose: subchronic 7 days, Sprague Dawley rats
Source text: Briefly, Sprague Dawley rats were acclimatized to the CNS-Laboratory-animal holding room for at least 7 days prior to the randomization, under standard housing conditions. The animals were handled and familiarized with the injection procedures during this period. Two days before the experimentation (social interaction trial, SIT1), the rats were randomized in different treatment-groups based on their body weights namely, vehicle (Tween 80 (1%, v/v), Vitamin E TPGS (Speziol®, 10%, v/v) q.s. 100% v/v in milli-Q water; 2 ml/kg, p.o.), scopolamine (0.5 mg/kg, i.p.) and test compound (Compound 1:ranging from 0.05 to 0.50 mg/kg, p.o.).
Seven days before experiment, the vehicle or the test compound was administered to the adult rats once-daily and 1 h before the SIT1 on day-8 in respective treatment-groups. Scopolamine or vehicle was administered 20 min prior to the first social interaction (acquisition, SIT1) trial; scopolamine administration served to induced amnesia. After this treatment, the animals were subjected to the first social interaction (acquisition, SIT1) trial, which was followed by a second (retention, SIT2) trial, 30 min later.
In the case of time-delay induced amnesia paradigm, the vehicle or the test compounds (Compound 1) were administered to the adult rats once-daily for 7 days and 1 h before the SIT1 on day-8, in respective treatment-groups. After this treatment, the animals were subjected to a second (retention, SIT2) trial on day-9. The 24 h inter-trial interval served to induce spontaneous decay of memory and resultant amnesia.
Both the trials (acquisition and retention) were of 5 min duration. The social recognition task was performed in the home-cages made up of transparent polycarbonate. Juvenile rats of 3-4 weeks of age served as subjects for exploration to the adult rats. Adult rats were habituated to the home-cage (without juvenile) for 5 min just before SIT1.
Subject exploration (towards juvenile) was measured as the ‘time spent by the adult animal’ exploring the juvenile rat socially viz. sniffing, following, climbing over or going under or aggression. In order to avoid the confounding olfactory trails, the home-cage was individualized for each adult rat. During the second trial (retention trial, SIT2), adult rats were re-exposed to the same juvenile rat previously introduced earlier in the SIT1. The time of exploration in seconds was recorded for both sessions (SIT1 and SIT2).
Mean and standard error of mean (S.E.M) were determined for the exploration time of each social recognition trial (SIT1, SIT2) and recognition index across the treatment-groups. […]
The recognition index (RI) was calculated using the formula: Recognition index equals(time spent investigating juvenile rat in SIT2/time spent investigating juvenile rat in SIT1). […]

[1] = Time-delay induced amnesia (24 h)

Structure (SMILES) | discrimination index as compared to vehicle-treated group (Wistar rats; 24 h time delay-induced amnesia, subchronic (7 day) 0.05 mg/Kg, FIG. 1A) | Minimum effective dose (Wistar rats; Scopolamine induced amnesia) | discrimination index as compared to scopolamine treated group (Wistar rats; Scopolamine-induced amnesia, subchronic (7 day) 0.05 mg/Kg, FIG. 1B) | Minimum effective dose (Wistar rats; [1]) | recognition index (RI) as compared to vehicle-treated group (Sprague Dawley rats; 24 h time delay-induced amnesia, subchronic (7 day) 0.05 mg/Kg, FIG. 2A) | Minimum effective dose (Sprague Dawley rats; Scopolamine induced amnesia) | recognition index (RI) as compared to scopolamine treated group (Sprague Dawley rats; Scopolamine-induced amnesia, subchronic (7 day) 0.05 mg/Kg, FIG. 2B) | Minimum effective dose (Sprague Dawley rats; [1])
Cc1c(-c2ccc(S(N)(=O)=O)cc2)c(C(=O)CC2CC2)n(C)c1-c1ccc(Cl)cc1 [Compound 1, 4-(5-(4-chlorophenyl)-2-(2-cyclopropylacetyl)-1,4-dimethyl-1H-pyrrol-3-yl)benzenesulfonamide] | significantly increased | 0.015 mg/kg | significantly increased | 0.015 mg/kg | significantly decreased | 0.015 mg/kg | significantly decreased | 0.05 mg/kg
CCC(=O)c1c(-c2ccc(S(N)(=O)=O)cc2)c(C)c(-c2ccc(Cl)cc2)n1C [Compound A, 4-(5-(4-chlorophenyl)-1,4-dimethyl-2-propionyl-1H-pyrrol-3-yl)benzenesulfonamide, reference compound] | – | >0.5 mg/kg | – | 0.15 mg/kg | – | – | – | –
